From US20210338550A1, “ANTIMICROBIAL MIXTURE CONTAINING 4-(3-ETHOXY-4-HYDROXYPHENYL)BUTAN-2-ONE AND CHLORPHENESIN, AND COSMETIC COMPOSITION CONTAINING SAME” (L'OREAL, priority 2017, published 2021)

Test system: Aspergillus niger ATCC 6275
Assay: Determination of synergistic antimicrobial activity in MIC (96-well microplate, optical density at 620 nm)
Assay type: cell-based
Conditions: for microbial growth percentage: 32.5° C., 24 to 48 hours
Description: FIC Index=(MICa with B/MICa)+(MICb with A/MICb)
with: • MICa with B: minimum concentration of product A in the combination A+B which makes it possible to obtain an inhibitory effect. • MICb with A: minimum concentration of product B in the combination A+B which makes it possible to obtain the inhibitory effect. • MICa: minimum inhibitory concentration of product A alone. • MICb: minimum inhibitory concentration of product B alone.
As regards the combinations tested, MICa with b and MICb with a are the respective concentrations of A and of B in the combinations which make it possible to obtain a microbial growth percentage of less than or equal to 25%.
When the FIC index value is less than or equal to 1, it is considered that the combination of test compounds has a synergistic effect.
The microbial strain Aspergillus niger ATCC 6275, and a double-concentration Sabouraud broth liquid culture medium supplemented with polyoxyethylenated (20 OE) sorbitan monopalmitate (Tween 40 from Croda) and Phytagel® BioReagent were used (i.e. a mixture of 5 g of Phytagel+0.6 g Tween 40+60 g of Sabouraud broth).
A 96-well microplate at an incubation temperature of 32.5° C. is used.
The incubation time of the microplate is from 24 to 48 hours aerobically.
A 10% (weight/volume) stock solution was prepared by mixing 1 g of compound in 9 ml of aqueous 1‰ agar solution. Successive dilutions were made with the 1‰ agar solution. • Test of compounds A and B alone
50 μL of each of the daughter solutions obtained containing compound A or B are added to the microplate wells. 100 μL of Sabouraud liquid nutrient broth inoculated with the strain Aspergillus niger and 50 μL of aqueous 1‰ agar solution are also added thereto. • Test of compounds A and B as a mixture
50 μL of each of the daughter solutions obtained containing compound A and 50 μL of each of the daughter solutions obtained containing compound B are added to the microplate wells. 100 μL of Sabouraud liquid nutrient broth inoculated at double concentration with the strain Aspergillus niger are also added thereto.
A positive microbial growth control was also prepared. The positive microbial growth control corresponds to a mixture of 100 μL of aqueous 1‰ agar solution with 100 μL of Sabouraud liquid nutrient broth inoculated at double concentration with the strain Aspergillus niger in the absence of compounds A and B.
An absorbance control was performed in parallel on compounds A and B alone. This control corresponds to 100 μL of double concentration sterile Sabouraud liquid nutrient broth+100 μL of double concentration compound A or B.
In the three cases (absorbance control, growth control and test), the final volume present in each of the microplate wells is 200 μL.
In the two cases (test and control), the inoculum represents the concentration of the strain Aspergillus niger present in the final volume of the wells (200 μL) and is between 2 and 6×10^5 cfu/ml of Aspergillus niger.
The minimum inhibitory concentration (MIC) of each compound A and B alone and in combination was determined in a known manner by means of optical density measurements at a wavelength of 620 nm.

[1] = first concentration giving growth <= 25%

% MIC of A alone [1] | % MIC of B alone [1] | Structure (SMILES) | microbial growth percentage (0.0625 weight % A alone (0 B)) | microbial growth percentage (0.125 weight % A alone (0 B)) | microbial growth percentage (0.25 weight % A alone (0 B)) | microbial growth percentage (0.0125 weight % B alone (0 A)) | microbial growth percentage (0.25 weight % B alone (0 A)) | microbial growth percentage (0.5 weight % B alone (0 A))
0.25% |  | CCOc1cc(CCC(C)=O)ccc1O [A, 4-(3-ethoxy-4-hydroxyphenyl)butan-2-one] | 79% | 41% | 5% |  |  | 
 | 0.5% | OCC(O)COc1ccc(Cl)cc1 (centres unmarked) [B, 3-(4-chlorophenoxy)-1,2-propanediol] |  |  |  | 71% | 38% | 1%
